Results taken from patent US10576102B2, “KOC1-derived peptide and vaccine including same” (ONCOTHERAPY SCIENCE, INC., priority 2014, dated 2020).
“Also recorded” adds a separate entry of the source.

Experiments:
[1] = system: peptide-pulsed C1R-A03; assay: IFN-gamma ELISA of CTL line and CTL clone (HLA-A*0301); format: cell-based, human
Experimental: CTLs were propagated in culture using methods similar to those disclosed by Riddell et al. (Walter E A et al., N Engl J Med 1995, 333(16): 1038-44; Riddell S R et al., Nat Med 1996, 2(2): 216-23). The CTLs were co-cultured in a total of 25 ml AIM-V medium containing 5% AS (AIM-V/5% AS) and 40 ng/ml anti-CD3 antibody with two types of Mitomycin C-treated human B lymphoblastoid cell lines at 5×10^6 cells/flask. One day after beginning of the culturing, 120 IU/ml IL-2 was added to the culture. On days 5, 8 and 11, a fresh AIM-V/5% AS medium containing 30 IU/ml IL-2 was added to the culture (Tanaka H et al., Br J Cancer 2001, 84(1): 94-9; Umano Y et al., Br J Cancer 2001, 84(8): 1052-7; Uchida N et al., Clin Cancer Res 2004, 10(24): 8577-86; Suda T et al., Cancer Sci 2006, 97(5): 411-9; Watanabe T et al., Cancer Sci 2005, 96(8): 498-506).
Dilution of CTLs was carried out to make 0.3, 1 and 3 cells/well in 96 round-bottomed microtiter plates (Nalge Nunc International). The CTLs were co-cultured with two types of Mitomycin C-treated human B lymphoblastoid cell lines at 1×10^4 cells/well in a total of 150 micro-1/well AIM-V/5% AS medium with 30 ng/ml anti-CD3 antibody and 125 IU/ml IL-2. Ten days later, IL-2 was added to the medium at 50 micro-1/well to reach a final concentration of 125 IU/ml. […]

[2] = system: peptide-pulsed C1R-A03; assay: In vitro CTL induction, IFN-gamma ELISPOT assay (HLA-A*0301); format: cell-based, human; details: CTLs induced with peptide-pulsed DCs from HLA-A*0301-positive volunteers; day 21; vs peptide-pulsed C1R-A03, compared with unpulsed control
Experimental: C1R (C1R-A03) that stably expresses HLA-A*0301 was used as a stimulator cell. A cDNA encoding the open-reading frame of HLA-A*0301 was amplified by PCR and cloned into an expression vector. C1R cells were transfected with the expression vector, and then selected using G418 (Invitrogen) for two weeks. The G418-selected cells were seeded into wells containing G418-added culture medium in a 96-well plate, and further cultured for 30 days. The exogenous HLA-A*0301 expression in C1R cells was verified by flow cytometric analysis.
Monocyte-derived dendritic cells (DCs) were used as the antigen-presenting cell to induce a cytotoxic T lymphocyte (CTL) response against peptides presented on human leukocyte antigens (HLAs). As described in the other sections, DCs were generated in vitro (Nakahara S et al., Cancer Res 2003, 63(14): 4112-8). Specifically, peripheral-blood mononuclear cells isolated from healthy volunteers (HLA-A*0301-positive) with the Ficoll-Paque plus solution (Pharmacia) were separated by attaching to plastic tissue culture dishes (Becton Dickinson) and concentrated as a monocyte fraction. The monocyte-concentrated population was cultured in the presence of 1000 IU/ml granulocyte macrophage colony-stimulating factor (R&D System) and 1000 IU/ml interleukin(IL)-4 (R&D System) in an AIM-V medium (Invitrogen) containing 2% heat-inactivated autologous serum (AS). After seven days of culturing, the cytokine-induced DCs were pulsed with 20 micro-g/ml each of the synthesized peptides in an AIM-V medium at 37 degrees C. for three hours in the presence of 3 micro-g/ml beta 2-microglobulin. The generated cells appeared to express on their cell surface DC-associated molecules such as CD80, CD83, CD86 and HLA class II (data not shown). Next, these peptide-pulsed DCs were inactivated by X-ray irradiation (20 Gy), and mixed in a 1:20 ratio with autologous CD8^+ T cells obtained by positive selection using the CD8 Positive Isolation Kit (Dynal). These culture products were seeded in a 48-well plate (Corning). Each well was made to contain 1.5×10^4 peptide-pulsed DCs, 3×10^5 CD8^+ T cells and 10 ng/ml IL-7 (R&D System) in 0.5 ml of the AIM-V/2% AS medium. Three days later, these culture products were added with a final concentration of 20 IU/ml IL-2 (CHIRON). On day 7 and day 14, T cells were further stimulated with peptide-pulsed autologous DCs. The DCs were prepared every time by the same method as above. […]

[3] = system: COS7 cells transfected with both KOC1 and HLA-A*0301; assay: Specific CTL activity against target cells expressing KOC1 and HLA-A*0301; format: cell-based, African green monkey; details: listed as KOC1-A03-10-120
Experimental: Specifically, peptide-pulsed C1R-A03 (1×10^4 cells/well) was prepared as the stimulator cell. The induced CTLs, i.e., CTL lines and CTL clones, were used as the responder cell. The IFN-gamma ELISPOT assay and IFN-gamma ELISA were performed according to the manufacturer's manual.
A cDNA encoding the open-reading frame of a target gene or HLA-A*0301 was amplified by PCR. The PCR-amplified product was cloned into an expression vector. Either or both of the target gene-expressing vector and the HLA-A*0301-expressing vector were transfected into […], which is a cell line negative for the target gene and HLA, using Lipofectamine 2000 (Invitrogen) following the manufacturer's recommended protocol. Two days after transfection, the transfected cells were harvested using versene (Invitrogen), and used as the target cell for CTL activity assay (5×10^4 cells/well).
The CTL clone established against KOC1-A03-10-120 (SEQ ID NO: 27) was investigated for their ability to recognize target cells expressing KOC1 and the HLA-A*0301 molecule. COS7 cells transfected with both full-length KOC1 and the HLA-A*0301 gene (a specific model of target cells expressing KOC1 and the HLA-A*0301 gene) were prepared as the target cell. COS7 cells transfected with either full-length KOC1 or HLA-A*0301 were prepared as the control.

“AVVNVTYSSK (a peptide derived from KOC1) [SEQ ID NO: 27]” was tested, and the “IFN-gamma production of CTL clone, ELISA” value ([1]; CTL clone by limiting dilution, peptide-pulsed C1R-A03, listed as KOC1-A03-10-120) was “Potent IFN-gamma production”, the “IFN-gamma production of CTL line, ELISA” value ([1]; CTL line, target cells pulsed with the peptide vs not pulsed, C1R-A03) was “potent IFN-gamma production” and the “peptide-specific CTL activity (IFN-gamma production), ELISPOT” value [2] was “potent IFN-gamma production”. The “specific CTL activity of CTL clone against target cells expressing KOC1 and HLA-A*0301” value ([3]; COS7 transfected with both full-length KOC1 and HLA-A*0301) was “specific CTL activity; also recorded: potent CTL activities” and the “specific CTL activity of CTL clone against control cells” value ([3]; COS7 transfected with either full-length KOC1 or HLA-A*0301) was “a significant specific CTL activity was not shown; also recorded: a significant specific CTL activity was not detected”.
